# Measured values as given in patent US20240360081A1, “SULFONAMIDE OREXIN RECEPTOR AGONISTS AND USES THEREOF” (Jazz Pharmaceuticals Ireland Limited, priority 2021, published 2024).
# pEC50: −log10 of the molar value.
# Target: T1, human recombinant OX2 (hOX2) receptor expressed in CHO cells (Homo sapiens, UniProt O43614)
# T1 construct: host or cells: CHO cells (hOX2-CHO)
# T1 sequence (O43614 1-444): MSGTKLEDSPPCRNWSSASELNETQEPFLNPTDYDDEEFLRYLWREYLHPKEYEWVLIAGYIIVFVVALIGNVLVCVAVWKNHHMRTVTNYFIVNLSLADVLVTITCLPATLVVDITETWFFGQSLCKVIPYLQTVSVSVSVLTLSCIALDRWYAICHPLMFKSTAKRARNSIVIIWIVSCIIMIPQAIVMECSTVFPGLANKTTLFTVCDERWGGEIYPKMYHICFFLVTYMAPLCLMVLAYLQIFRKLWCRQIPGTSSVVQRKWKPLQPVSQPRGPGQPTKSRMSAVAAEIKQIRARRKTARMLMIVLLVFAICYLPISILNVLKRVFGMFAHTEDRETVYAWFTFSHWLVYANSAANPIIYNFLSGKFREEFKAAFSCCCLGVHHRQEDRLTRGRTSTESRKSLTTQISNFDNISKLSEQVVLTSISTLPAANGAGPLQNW
# Assay: IP-1 accumulation assay (IP-One HTRF) in hOX2-CHO cells
# Format: cell-based
# Settings: 60 min at 37° C., 11 points CRC, response as % of maximal OX-A response
# How it was run: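 CHO cells expressing hOX2, 20,000 cells/well in HBSS with 20 mM HEPES pH 7.4, 50 mM LiCl, 0.1% BSA; 11-point compound series, 0.5% DMSO final, 60 min at 37 °C. IP-1 by HTRF (665/615 ratio) after 60 min at room temperature, as % of maximal OX-A response; EC50 by four-parameter logistic fit, mean of ≥2 experiments in duplicate.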
row,SMILES,pEC50
1,"Cc1cc(C(CNS(C)(=O)=O)CO[C@H]2CC[C@@H](c3cccc(F)c3)CC2)c(=O)n(CC(F)F)c1 (stereo partly drawn) [Example 5w, N-{2-[1-(2,2-difluoroethyl)-5-methyl-2-oxo-1,2-dihydropyridin-3-yl]-3-{[(CIS)-4-(3-fluorophenyl)cyclohexyl]oxy}propyl}methanesulfonamide]",> 7.00
2,"Cc1cc(C(CNS(C)(=O)=O)CO[C@H]2CC[C@@H](c3cccc(F)c3)CC2)c(=O)n(C(F)F)c1 (stereo partly drawn) [Example 5x, N-{2-[1-(difluoromethyl)-5-methyl-2-oxo-1,2-dihydropyridin-3-yl]-3-{[(CIS)-4-(3-fluorophenyl)cyclohexyl]oxy}propyl}methanesulfonamide]",> 7.00
3,"Cc1cc(-c2cccnc2)cn(C(CNS(C)(=O)=O)CO[C@H]2CC[C@@H](c3ccccc3)CC2)c1=O (stereo partly drawn) [Example 6a, N-(2-{5-methyl-6-oxo-1,6-dihydro-[3,3′-bipyridin]-1-yl}-3-{[(CIS)-4-phenylcyclohexyl]oxy}propyl) methanesulfonamide]",5.00 to 6.00
4,"Cc1cc(-n2cccn2)cn(C(CNS(C)(=O)=O)CO[C@H]2CC[C@@H](c3ccccc3)CC2)c1=O (stereo partly drawn) [Example 7a, N-{2-[3-methyl-2-oxo-5-(1H-pyrazol-1-yl)-1,2-dihydropyridin-1-yl]-3-{[(CIS)-4-phenylcyclohexyl]oxy}propyl}methanesulfonamide]",6.00 to 7.00
5,"CS(=O)(=O)NCC(Cc1cccc(-c2ccccc2)c1)n1ccccc1=O (stereo not shown) [Example 8a, N-(3-{[1,1′-biphenyl]-3-yl}-2-(2-oxo-1,2-dihydropyridin-1-yl)propyl)methanesulfonamide]",< 5.00

# The remaining lines, values ahead:
row,pEC50,SMILES
1,> 7.00,"Cc1cc(C(CNS(=O)(=O)N(C)C)CO[C@H]2CC[C@@H](c3cc(F)cc(F)c3)CC2)c(=O)n(C)c1 (stereo partly drawn) [Example 5u, 3-{1-[(dimethylsulfamoyl)amino]-3-{[(CIS)-4-(3,5-difluorophenyl)cyclohexyl]oxy}propan-2-yl}-1,5-dimethyl-1,2-dihydropyridin-2-one]"
2,> 7.00,"Cc1cc(C(CNS(C)(=O)=O)CO[C@H]2CC[C@@H](c3cccc(F)c3)CC2)c(=O)n(C2CC2)c1 (stereo partly drawn) [Example 5v, N-[2-(1-cyclopropyl-5-methyl-2-oxo-1,2-dihydropyridin-3-yl)-3-{[(CIS)-4-(3-fluorophenyl)cyclohexyl]oxy}propyl]methanesulfonamide]"
